# Results reported in PMC6240685, “Strong Inhibitory Effect, Low Cytotoxicity and High Plasma Stability of Steroidal Inhibitors of N-Methyl-D-Aspartate Receptors With C-3 Amide Structural Motif” (Frontiers in Pharmacology, 2018).
# Read-outs that look alike come from different tables or passages of the source.
# Key:
# GluN1/GluN2B receptors = target: T1, GluN1/GluN2B receptors (Rattus norvegicus, UniProt P35439+Q00960); experiment: Patch-clamp inhibition of glutamate responses of GluN1/GluN2B receptors in transfected HEK293 cells; assay type: cell-based
# T1 construct: expressed in transfected cells; host or cells: HEK293
# T1 sequence (Q00960 27-1482, other chains not shown): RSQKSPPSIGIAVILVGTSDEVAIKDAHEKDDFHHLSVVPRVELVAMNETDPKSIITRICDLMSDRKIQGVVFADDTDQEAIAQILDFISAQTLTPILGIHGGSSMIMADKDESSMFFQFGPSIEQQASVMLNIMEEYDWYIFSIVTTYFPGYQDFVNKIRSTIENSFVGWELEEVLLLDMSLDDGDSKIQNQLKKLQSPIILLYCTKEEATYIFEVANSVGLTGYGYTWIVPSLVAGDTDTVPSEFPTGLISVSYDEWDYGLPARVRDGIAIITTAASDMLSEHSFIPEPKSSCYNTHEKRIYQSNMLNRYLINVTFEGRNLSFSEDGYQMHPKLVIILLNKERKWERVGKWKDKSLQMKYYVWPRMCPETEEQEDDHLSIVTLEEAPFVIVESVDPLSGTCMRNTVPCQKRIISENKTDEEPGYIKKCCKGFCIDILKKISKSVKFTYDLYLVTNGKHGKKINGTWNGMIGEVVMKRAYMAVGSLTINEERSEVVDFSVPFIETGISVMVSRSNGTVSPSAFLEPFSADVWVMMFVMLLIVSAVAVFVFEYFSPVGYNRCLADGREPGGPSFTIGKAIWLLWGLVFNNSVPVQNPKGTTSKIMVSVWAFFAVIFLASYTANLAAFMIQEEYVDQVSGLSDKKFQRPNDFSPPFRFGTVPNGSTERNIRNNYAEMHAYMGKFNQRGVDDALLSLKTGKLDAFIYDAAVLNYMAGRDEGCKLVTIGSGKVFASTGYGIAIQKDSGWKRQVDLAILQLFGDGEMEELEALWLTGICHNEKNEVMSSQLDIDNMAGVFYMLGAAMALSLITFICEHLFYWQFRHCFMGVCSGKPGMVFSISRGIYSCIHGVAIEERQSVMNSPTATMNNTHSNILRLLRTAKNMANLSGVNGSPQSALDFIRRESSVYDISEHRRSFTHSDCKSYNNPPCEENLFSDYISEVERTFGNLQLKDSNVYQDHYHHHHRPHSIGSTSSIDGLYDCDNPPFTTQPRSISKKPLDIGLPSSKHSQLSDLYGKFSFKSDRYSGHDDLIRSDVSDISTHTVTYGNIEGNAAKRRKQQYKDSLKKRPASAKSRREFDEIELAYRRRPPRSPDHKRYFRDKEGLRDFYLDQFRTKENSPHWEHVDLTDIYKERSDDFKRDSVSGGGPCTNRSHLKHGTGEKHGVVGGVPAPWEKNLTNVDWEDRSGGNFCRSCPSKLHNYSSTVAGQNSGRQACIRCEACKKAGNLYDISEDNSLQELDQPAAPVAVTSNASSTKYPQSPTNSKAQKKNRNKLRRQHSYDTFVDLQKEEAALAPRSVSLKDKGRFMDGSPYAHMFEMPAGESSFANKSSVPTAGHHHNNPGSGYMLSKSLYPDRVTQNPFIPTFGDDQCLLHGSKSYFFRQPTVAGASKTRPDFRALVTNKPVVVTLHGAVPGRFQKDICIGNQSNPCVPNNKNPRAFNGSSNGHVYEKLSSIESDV
# GluN1/GluN2A receptors = target: T2, GluN1/GluN2A receptors (Rattus norvegicus, UniProt P35439+Q00959); experiment: Patch-clamp inhibition of GluN1/GluN2A receptors in transfected HEK293 cells; assay type: cell-based; conditions: 1 mM glutamate and 10 μM glycine
# T2 construct: expressed in transfected cells; host or cells: HEK293
# T2 sequence (Q00959 23-1464, other chains not shown): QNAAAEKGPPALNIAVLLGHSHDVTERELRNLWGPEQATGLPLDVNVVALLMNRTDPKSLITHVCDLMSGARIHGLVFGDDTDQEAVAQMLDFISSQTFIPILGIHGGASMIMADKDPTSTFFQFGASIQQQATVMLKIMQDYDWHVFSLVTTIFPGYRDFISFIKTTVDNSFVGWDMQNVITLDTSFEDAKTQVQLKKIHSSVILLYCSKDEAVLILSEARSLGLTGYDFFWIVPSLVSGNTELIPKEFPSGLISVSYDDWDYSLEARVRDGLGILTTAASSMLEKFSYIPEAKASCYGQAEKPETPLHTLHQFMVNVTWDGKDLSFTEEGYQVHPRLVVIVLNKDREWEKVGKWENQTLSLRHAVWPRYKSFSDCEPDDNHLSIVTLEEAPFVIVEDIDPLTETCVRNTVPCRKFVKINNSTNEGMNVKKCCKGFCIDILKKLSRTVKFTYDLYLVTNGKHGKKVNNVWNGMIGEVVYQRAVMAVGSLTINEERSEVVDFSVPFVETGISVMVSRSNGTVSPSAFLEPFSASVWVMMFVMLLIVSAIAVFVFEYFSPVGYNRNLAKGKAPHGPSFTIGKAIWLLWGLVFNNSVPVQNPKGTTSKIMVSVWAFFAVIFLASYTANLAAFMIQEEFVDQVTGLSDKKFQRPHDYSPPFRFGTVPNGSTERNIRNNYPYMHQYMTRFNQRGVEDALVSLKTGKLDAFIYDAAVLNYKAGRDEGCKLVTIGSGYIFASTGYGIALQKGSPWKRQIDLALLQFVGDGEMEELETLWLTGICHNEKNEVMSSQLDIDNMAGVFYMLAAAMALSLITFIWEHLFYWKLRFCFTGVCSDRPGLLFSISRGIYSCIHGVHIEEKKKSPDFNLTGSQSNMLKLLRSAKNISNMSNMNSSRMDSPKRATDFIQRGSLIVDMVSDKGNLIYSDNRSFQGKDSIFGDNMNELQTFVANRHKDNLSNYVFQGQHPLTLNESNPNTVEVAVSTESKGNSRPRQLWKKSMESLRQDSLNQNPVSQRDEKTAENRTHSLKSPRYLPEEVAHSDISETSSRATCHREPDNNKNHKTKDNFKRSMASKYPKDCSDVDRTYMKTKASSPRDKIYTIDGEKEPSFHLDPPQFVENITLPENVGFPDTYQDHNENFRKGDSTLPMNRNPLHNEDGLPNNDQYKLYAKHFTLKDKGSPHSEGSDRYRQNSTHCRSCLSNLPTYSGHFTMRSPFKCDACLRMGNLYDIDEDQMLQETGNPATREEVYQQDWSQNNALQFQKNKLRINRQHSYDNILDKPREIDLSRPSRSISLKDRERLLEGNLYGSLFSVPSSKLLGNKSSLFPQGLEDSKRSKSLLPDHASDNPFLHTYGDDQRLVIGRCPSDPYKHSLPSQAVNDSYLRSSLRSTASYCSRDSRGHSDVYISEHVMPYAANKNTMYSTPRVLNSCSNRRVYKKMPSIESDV
# Description: FIGURE 7 Concentration–response properties of compound 6 on GluN1/GluN2A-D receptors. (A) Examples of traces obtained from HEK293 cells transfected with cDNAs encoding GluN1/GluN2A, GluN1/GluN2B, GluN1/GluN2C, and GluN1/GluN2D receptors. Agonists (1 mM glutamate and 10 μM glycine) were applied alone and simultaneously with compound 6 (10 μM) to evaluate the inhibitory effect of compound 6 on NMDAR mediated currents (duration of glutamate and steroid application is indicated by filled and open bars, respectively). (B) Concentration–response curves for the compound 6 effect at GluN1/GluN2A-D receptors. Data points are averaged values of normalized responses from at least four HEK293 cells. Error bars represent SD.
# Electrophysiological experiments were performed on HEK293 cells transfected with plasmids encoding rat GluN1-1a/GluN2A-D and GFP genes as described previously, ([Petrovic et al., 2005]; [Cais et al., 2008]; [Korinek et al., 2010]) or on primary hippocampal neurons prepared from P0–P1 rats, plated on collagen/poly-D-lysine-coated glass coverslips at a density of ∼50,000 cells/cm^2, and grown in Neurobasal A medium with B27 Supplement (Gibco). Agonist-induced responses were voltage-clamped at a holding potential of −60 mV. […] Agonist-induced responses were low-pass filtered at 2 kHz, digitally sampled at 5 kHz, and analyzed with pClamp software version 10.5 (Molecular Devices). […]
# [1] = Plasma stability, rat plasma; assay type: in vitro ADME; conditions: rat, plasma
structure (smiles),measurement,setting,value
"C[C@@]12CCC[C@H]1[C@@H]1CC[C@@H]3C[C@H](NC(=O)[C@@H](N)CC(=O)O)CC[C@]3(C)[C@H]1CC2 [Compound 6, (S)-3-amino-4-(((3R,5R,8S,9S,10S,13S,14S)-10,13-dimethylhexadecahydro-1H-cyclopenta[a]phenanthren-3-yl)amino)-4-oxobutanoic acid]",ΔGexp,GluN1/GluN2B receptors,-7.29 kcal/mol
same,h ± SD (apparent Hill coefficient),GluN1/GluN2B receptors; 1 mM glutamate and 10 μM glycine,1.3 ± 0.1
same,IC50,"GluN1/GluN2B receptors; as repeated in Table 2, read-out: IC50",4.8 µM
same,IC50,"GluN1/GluN2B receptors; concentration-response, 1 mM glutamate and 10 μM glycine, read-out: IC50 ±SD",7.4 ± 0.8 µM
same,IC50,"GluN1/GluN2B receptors; current responses to glutamate, HEK293, IC50 from single steroid dose, Hill coefficient fixed at 1.2, read-out: IC50 ± SD",4.8 ± 0.9 µM
same,h ± SD (apparent Hill coefficient),GluN1/GluN2A receptors,1.3 ± 0.1
same,IC50,GluN1/GluN2A receptors; concentration-response,6.5 ± 0.7 µM
same,"remaining at 8 h, 42.1 μg/mL",[1],97%
